From ChEMBL document CHEMBL1201862, “PubChem BioAssay data set” (2004)
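Tested at 5 concentrations; 48 h exposure; 96-well plates; endpoints linearly interpolated, else capped at highest concentration. GI50: concentration for 50% inhibition of growth.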 Calls of active or inactive are those of the source. Cut-off read from the data, not from the text of the source: active = GI50 up to about 1.1 µM and inactive = higher.

Assays:
Test in all cases: growth of human tumour cells (NCI), 48 h
M14 = system: M14
M19-MEL = system: M19-MEL
SNB-75 = system: SNB-75
MOLT-4 = system: MOLT-4
SN12C = system: SN12C
A549 = system: A549
SK-MEL-28 = system: SK-MEL-28
NCI-H460 = system: NCI-H460
RXF 393 = system: RXF 393
UACC-62 = system: UACC-62
SNB-19 = system: SNB-19
HCT-116 = system: HCT-116
OVCAR-5 = system: OVCAR-5
SR = system: SR
786-0 = system: 786-0
OVCAR-3 = system: OVCAR-3
K562 = system: K562
COLO 205 = system: COLO 205
MDA-MB-231 = system: MDA-MB-231
PC-3 = system: PC-3

Row | Structure (SMILES) | GI50 (M14) | GI50 (M19-MEL) | GI50 (SNB-75) | GI50 (MOLT-4) | GI50 (SN12C) | GI50 (A549) | GI50 (SK-MEL-28) | GI50 (NCI-H460) | GI50 (RXF 393) | GI50 (UACC-62) | GI50 (SNB-19) | GI50 (HCT-116) | GI50 (OVCAR-5) | GI50 (SR) | GI50 (786-0) | GI50 (OVCAR-3) | GI50 (K562) | GI50 (COLO 205) | GI50 (MDA-MB-231) | GI50 (PC-3)
1 | c1ccc(-c2nnc3nn4c(-c5ccccc5)cnnc4c3c2-c2ccccc2)cc1 | > 100 µM (inactive) | 88.7 µM (inactive) | 34.4 µM (inactive) | > 100 µM (inactive) | > 100 µM (inactive) | 50.8 µM (inactive) | 64 µM (inactive) | 75.7 µM (inactive) | 14.7 µM (inactive) | 32.1 µM (inactive) | 25.2 µM (inactive) | 63.4 µM (inactive) | > 100 µM (inactive) | > 100 µM (inactive) | 0.0794 µM (active) | 26.4 µM (inactive) | 75 µM (inactive) |  |  | 
2 | COC(=O)c1ccccc1/N=C/c1ccc(N(CCC#N)S(=O)(=O)c2ccccc2)cc1 | > 100 µM (inactive) | > 100 µM (inactive) | > 100 µM (inactive) | > 100 µM (inactive) | > 100 µM (inactive) | > 100 µM (inactive) | > 100 µM (inactive) | > 100 µM (inactive) | > 100 µM (inactive) | > 100 µM (inactive) | > 100 µM (inactive) | > 100 µM (inactive) | > 100 µM (inactive) | > 100 µM (inactive) | > 100 µM (inactive) | > 100 µM (inactive) | > 100 µM (inactive) | > 100 µM (inactive) |  | 
3 | C[C@H](OCc1ccccc1)C(=O)N1CCS(=O)(=O)N2CCC[C@H]2C1=O | > 100 µM (inactive) | > 100 µM (inactive) | > 100 µM (inactive) | > 100 µM (inactive) | > 100 µM (inactive) | > 100 µM (inactive) | > 100 µM (inactive) | > 100 µM (inactive) | > 100 µM (inactive) | > 100 µM (inactive) | > 100 µM (inactive) | > 100 µM (inactive) | > 100 µM (inactive) | > 100 µM (inactive) | > 100 µM (inactive) | > 100 µM (inactive) | > 100 µM (inactive) | > 100 µM (inactive) |  | 
4 | CCN1CCC(O)(c2ccc(Cl)cc2)C(C(=O)c2ccc(Cl)cc2)C1 (stereo unspecified) | > 100 µM (inactive) | > 100 µM (inactive) | 42 µM (inactive) | > 100 µM (inactive) | > 100 µM (inactive) | > 100 µM (inactive) | > 100 µM (inactive) | > 100 µM (inactive) | > 100 µM (inactive) | > 100 µM (inactive) | > 100 µM (inactive) | > 100 µM (inactive) | > 100 µM (inactive) | 36.6 µM (inactive) | > 100 µM (inactive) | > 100 µM (inactive) | > 100 µM (inactive) | > 100 µM (inactive) |  | 
5 | O=C1[C@@H]2C3SC(c4ccccc43)[C@@H]2C(=O)N1c1ccccc1 | > 100 µM (inactive) | > 100 µM (inactive) | 28.6 µM (inactive) | > 100 µM (inactive) | > 100 µM (inactive) | > 100 µM (inactive) | > 100 µM (inactive) | > 100 µM (inactive) | > 100 µM (inactive) | > 100 µM (inactive) | 41.9 µM (inactive) | > 100 µM (inactive) | > 100 µM (inactive) | > 100 µM (inactive) | > 74 µM (inactive) | > 100 µM (inactive) | > 100 µM (inactive) | > 100 µM (inactive) |  | 
6 | COc1ccc(/C=N/N=C(\N)NO)cc1OC | 27.9 µM (inactive) | 44.8 µM (inactive) | 42.9 µM (inactive) | > 100 µM (inactive) | 45.8 µM (inactive) | 28.4 µM (inactive) | > 100 µM (inactive) | 33.7 µM (inactive) | 30.5 µM (inactive) | 23.3 µM (inactive) | > 100 µM (inactive) | 42.8 µM (inactive) | 63 µM (inactive) | 24.9 µM (inactive) | 31 µM (inactive) | > 100 µM (inactive) | 11.5 µM (inactive) | 37.5 µM (inactive) |  | 
7 | CN1C(=O)C(Cl)(C(Cl)(Cl)S(=O)(=O)O)C(=O)c2ccccc21.c1ccncc1 (stereo unspecified) | > 100 µM (inactive) | > 100 µM (inactive) | 54.2 µM (inactive) | > 100 µM (inactive) | > 100 µM (inactive) | > 100 µM (inactive) | > 100 µM (inactive) | > 100 µM (inactive) | 53.7 µM (inactive) | > 100 µM (inactive) | > 100 µM (inactive) | > 100 µM (inactive) |  | > 100 µM (inactive) | > 100 µM (inactive) | > 100 µM (inactive) | > 100 µM (inactive) | > 100 µM (inactive) |  | 
8 | COc1cc2c(c(OC)c1OC)-c1ccc(SC)c(=O)cc1C(CC(=O)Oc1cccc(F)c1)C2 (stereo unspecified) | 0.242 µM (active) | 0.263 µM (active) | 0.138 µM (active) | 0.444 µM (active) | 0.222 µM (active) | 0.577 µM (active) | 0.621 µM (active) | 0.212 µM (active) | 0.129 µM (active) | 0.111 µM (active) | 0.667 µM (active) | 0.321 µM (active) | 4.55 µM (inactive) | 0.0542 µM (active) | 0.114 µM (active) | 0.0946 µM (active) | 0.149 µM (active) | 0.153 µM (active) |  | 
9 | COC(=O)C1=C(c2ccc(OC)c(OC)c2)OC(c2ccc(OC)c(OC)c2)C1 (stereo unspecified) | 38.7 µM (inactive) | 42.6 µM (inactive) | 41.4 µM (inactive) | 8.17 µM (inactive) | 27.9 µM (inactive) | 42.3 µM (inactive) | 45.1 µM (inactive) | 41 µM (inactive) | 25.6 µM (inactive) | 35.6 µM (inactive) |  | 27.3 µM (inactive) | 32.6 µM (inactive) | 18.5 µM (inactive) | 31.6 µM (inactive) | 33.9 µM (inactive) | 32.1 µM (inactive) | 17.1 µM (inactive) |  | 
10 | Cc1cc(O)nc(NNC(C#N)c2ccccc2O)n1 (stereo unspecified) |  | 17.8 µM (inactive) | 31.5 µM (inactive) | 24.6 µM (inactive) | 73.6 µM (inactive) | 16.8 µM (inactive) | 36.3 µM (inactive) | 10.5 µM (inactive) | > 100 µM (inactive) | 21.7 µM (inactive) |  | 19.3 µM (inactive) | 58.6 µM (inactive) | 4.3 µM (inactive) | 19.8 µM (inactive) | 10.8 µM (inactive) | 41.7 µM (inactive) | 31 µM (inactive) |  | 
11 | COc1ccc(OC)c(CCc2ccccc2CC(=O)O)c1 | > 100 µM (inactive) | > 100 µM (inactive) | 35.5 µM (inactive) | > 100 µM (inactive) | > 100 µM (inactive) | > 100 µM (inactive) | > 100 µM (inactive) | > 100 µM (inactive) | > 100 µM (inactive) | > 100 µM (inactive) | > 100 µM (inactive) | > 100 µM (inactive) | > 100 µM (inactive) | > 100 µM (inactive) | > 100 µM (inactive) | > 100 µM (inactive) | > 100 µM (inactive) | > 100 µM (inactive) |  | 
12 | CC(C)C(Nc1c2ccccc2nc2ccccc12)C(=O)O (stereo unspecified) | > 100 µM (inactive) | > 100 µM (inactive) | > 100 µM (inactive) | 38.7 µM (inactive) | > 100 µM (inactive) | > 100 µM (inactive) | > 100 µM (inactive) | 65.5 µM (inactive) | > 100 µM (inactive) | > 100 µM (inactive) | > 100 µM (inactive) | 43.3 µM (inactive) | > 100 µM (inactive) | 46.5 µM (inactive) | > 100 µM (inactive) | 94.2 µM (inactive) | > 100 µM (inactive) | 70.1 µM (inactive) |  | 
13 | COc1ccc2nc3ccccc3c(NCCN(CCCl)CCCl)c2c1 | 1.03 µM (active) | 1.27 µM (inactive) | 1.25 µM (inactive) | 0.0592 µM (active) | 0.658 µM (active) | 0.771 µM (active) | 2.36 µM (inactive) |  | 1.66 µM (inactive) | 1 µM (active) | 0.656 µM (active) | 0.272 µM (active) | 0.643 µM (active) | 0.0321 µM (active) | 0.33 µM (active) | 0.269 µM (active) | 0.407 µM (active) |  |  | 
14 | CC[C@H](C)C(=O)O[C@H]1C[C@@H](C)C=C2C=C[C@H](C)[C@H](CC[C@@H]3C[C@@H](O)CC(=O)O3)[C@H]21 [LOVASTATIN] | 12.3 µM (inactive) | 2.42 µM (inactive) |  | 26.8 µM (inactive) | 1.71 µM (inactive) | 21.2 µM (inactive) | 25 µM (inactive) | 18 µM (inactive) | 2.52 µM (inactive) | 1.53 µM (inactive) |  |  | > 30 µM (inactive) | 2.11 µM (inactive) | 9.77 µM (inactive) | > 30 µM (inactive) | 19.5 µM (inactive) | 5.73 µM (inactive) |  | 
15 | S=P(N1CC1)(N1CC1)N1CC1 [THIOTEPA] | 72.1 µM (inactive) | 142 µM (inactive) | 97.3 µM (inactive) | 7.69 µM (inactive) | 35.5 µM (inactive) | 50.4 µM (inactive) | 186 µM (inactive) | 5.33 µM (inactive) | 101 µM (inactive) | 14.7 µM (inactive) | 115 µM (inactive) | 116 µM (inactive) | 147 µM (inactive) |  | 39.8 µM (inactive) | 169 µM (inactive) | 143 µM (inactive) | 141 µM (inactive) | 274 µM (inactive) | 217 µM (inactive)
